Test results: PubChem BioAssay AID1963848 (Molecular Pharmacology Branch, DTP, NCI, 2024)

Tested on: 379773-124-R-J2-PDC spheroid viability
Assay: Anticancer human tumor 379773-124-R-J2-PDC patient-derived endometrial carcinoma cell line growth inhibition [POLQ]
Conditions: spheroids with HUVEC and MSC; for IC50: curve of first compound; for viability, T/C: stronger effect = lower value
Procedure, shortened: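 Complex spheroid viability model combining PDC tumour cells with endothelial (HUVEC) and MSC stromal cells. Novobiocin, ART-558 or RP6685 were tested singly and in combination with standard and investigational anticancer drugs. Each was titrated in half-log steps from near clinical Cmax, or from 10 microM where Cmax was unknown.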

[1] = second compound 0.0316 µM, first compound 0.0316 µM
[2] = second compound 0.0316 µM, first compound 0.1 µM
[3] = second compound 0.0316 µM, first compound 0.316 µM
[4] = second compound 0.0316 µM, first compound 1 µM
[5] = second compound 0.0316 µM, first compound 3.16 µM
[6] = second compound 0.0316 µM, first compound 10 µM
[7] = second compound 0.1 µM, first compound 0.0316 µM
[8] = second compound 0.1 µM, first compound 0.1 µM
[9] = second compound 0.1 µM, first compound 0.316 µM
[10] = second compound 0.1 µM, first compound 1 µM
[11] = second compound 0.1 µM, first compound 3.16 µM
[12] = second compound 0.1 µM, first compound 10 µM
[13] = second compound 0.316 µM, first compound 0.0316 µM
[14] = second compound 0.316 µM, first compound 0.1 µM
[15] = second compound 0.316 µM, first compound 0.316 µM
[16] = second compound 0.316 µM, first compound 1 µM
[17] = second compound 0.316 µM, first compound 3.16 µM
[18] = second compound 0.316 µM, first compound 10 µM
[19] = second compound 1 µM, first compound 0.0316 µM
[20] = second compound 1 µM, first compound 0.1 µM
[21] = second compound 1 µM, first compound 0.316 µM
[22] = second compound 1 µM, first compound 1 µM
[23] = second compound 1 µM, first compound 3.16 µM
[24] = second compound 1 µM, first compound 10 µM
[25] = second compound 3.16 µM, first compound 0.0316 µM
[26] = second compound 3.16 µM, first compound 0.1 µM
[27] = second compound 3.16 µM, first compound 0.316 µM
[28] = second compound 3.16 µM, first compound 1 µM
[29] = second compound 3.16 µM, first compound 3.16 µM
[30] = second compound 3.16 µM, first compound 10 µM
[31] = second compound 10 µM, first compound 0.0316 µM
[32] = second compound 10 µM, first compound 0.1 µM
[33] = second compound 10 µM, first compound 0.316 µM
[34] = second compound 10 µM, first compound 1 µM
[35] = second compound 10 µM, first compound 3.16 µM
[36] = second compound 10 µM, first compound 10 µM
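Further: spheroids exposed to drugs for seven days before readout.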
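Wherever viability, T/C is given: percent viability relative to DMSO vehicle control taken as 100%.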

For `O=c1[nH]cc(F)c(=O)[nH]1` + Nc1ccc(C#CCN(C(=O)Cc2ncc(C(F)(F)F)cc2C(F)(F)F)c2ccc(F)cc2)nn1, the IC50 (second compound 0.0316 µM) was greater than 10 µM, the IC50 (second compound 0.1 µM) was greater than 10 µM and the IC50 (second compound 0.316 µM) was greater than 10 µM. It also gave an IC50 (second compound 1 µM) greater than 10 µM, an IC50 (second compound 3.16 µM) greater than 10 µM and an IC50 (second compound 10 µM) greater than 10 µM. It also gave a viability, T/C [1] of 93.1%, a viability, T/C [2] of 93% and a viability, T/C [3] of 99.6%. For the same compound, the viability, T/C [4] was 85.2%, the viability, T/C [5] was 78.1% and the viability, T/C [6] was 55.7%. It also gave a viability, T/C [7] of 89.2%, a viability, T/C [8] of 98.1% and a viability, T/C [9] of 95.1%. For the same compound, the viability, T/C [10] was 80.4%, the viability, T/C [11] was 78.8% and the viability, T/C [12] was 59.6%. For the same compound, the viability, T/C [13] was 96.1%, the viability, T/C [14] was 98.1% and the viability, T/C [15] was 98.2%. The viability, T/C [16] was 94.7%, the viability, T/C [17] was 74.4% and the viability, T/C [18] was 62%. It also gave a viability, T/C [19] of 92.3%, a viability, T/C [20] of 85.3% and a viability, T/C [21] of 95.3%. For the same compound, the viability, T/C [22] was 87.2%, the viability, T/C [23] was 75.9% and the viability, T/C [24] was 51.3%. It also gave a viability, T/C [25] of 94.1%, a viability, T/C [26] of 83% and a viability, T/C [27] of 91.3%. For the same compound, the viability, T/C [28] was 82.4%, the viability, T/C [29] was 74.1% and the viability, T/C [30] was 57.7%. It also gave a viability, T/C [31] of 87.4%, a viability, T/C [32] of 88.2% and a viability, T/C [33] of 93.5%. It also gave a viability, T/C [34] of 90.2%, a viability, T/C [35] of 63.1% and a viability, T/C [36] of 57.6%.
For `Nc1ccn(C2OC(CO)C(O)C2(F)F)c(=O)n1` (stereo not drawn) + COC1C(OC(N)=O)C(O)C(Oc2ccc3c(O)c(NC(=O)c4ccc(O)c(CC=C(C)C)c4)c(=O)oc3c2C)OC1(C)C, the IC50 (second compound 0.0316 µM) was less than 0.0316 µM, the IC50 (second compound 0.1 µM) was less than 0.0316 µM and the IC50 (second compound 0.316 µM) was less than 0.0316 µM. For the same compound, the IC50 (second compound 1 µM) was less than 0.0316 µM, the IC50 (second compound 3.16 µM) was less than 0.0316 µM and the IC50 (second compound 10 µM) was less than 0.0316 µM. The viability, T/C [1] was 14.1%, the viability, T/C [2] was 7.21% and the viability, T/C [3] was 8.07%. For the same compound, the viability, T/C [4] was 10.4%, the viability, T/C [5] was 7.9% and the viability, T/C [6] was 5.28%. The viability, T/C [7] was 13.9%, the viability, T/C [8] was 7.13% and the viability, T/C [9] was 9.39%. The viability, T/C [10] was 8.07%, the viability, T/C [11] was 8.46% and the viability, T/C [12] was 7.04%. The viability, T/C [13] was 14.2%, the viability, T/C [14] was 9.44% and the viability, T/C [15] was 8.7%. It also gave a viability, T/C [16] of 9.16%, a viability, T/C [17] of 11.3% and a viability, T/C [18] of 9.38%. The viability, T/C [19] was 19.4%, the viability, T/C [20] was 7.26% and the viability, T/C [21] was 9.54%. For the same compound, the viability, T/C [22] was 8.14%, the viability, T/C [23] was 9.07% and the viability, T/C [24] was 7.06%. For the same compound, the viability, T/C [25] was 16.1%, the viability, T/C [26] was 7.44% and the viability, T/C [27] was 8.41%. It also gave a viability, T/C [28] of 9.67%, a viability, T/C [29] of 7.02% and a viability, T/C [30] of 6.42%. For the same compound, the viability, T/C [31] was 17.5%, the viability, T/C [32] was 5.7% and the viability, T/C [33] was 9.27%. It also gave a viability, T/C [34] of 8.67%, a viability, T/C [35] of 8.15% and a viability, T/C [36] of 8.46%.
`COc1cc2cc(C(=O)CCC(=O)O)sc2cc1OC` + Nc1ccc(C#CCN(C(=O)Cc2ncc(C(F)(F)F)cc2C(F)(F)F)c2ccc(F)cc2)nn1 showed an IC50 (second compound 0.0316 µM) greater than 10 µM, an IC50 (second compound 0.1 µM) greater than 10 µM and an IC50 (second compound 0.316 µM) greater than 10 µM. The IC50 (second compound 1 µM) was greater than 10 µM, the IC50 (second compound 3.16 µM) was greater than 10 µM and the IC50 (second compound 10 µM) was greater than 10 µM. The viability, T/C [1] was 84.3%, the viability, T/C [2] was 97.2% and the viability, T/C [3] was 87.6%. For the same compound, the viability, T/C [4] was 93.6%, the viability, T/C [5] was 93.9% and the viability, T/C [6] was 82.7%. The viability, T/C [7] was 93.9%, the viability, T/C [8] was 86% and the viability, T/C [9] was 91.8%. The viability, T/C [10] was 85.5%, the viability, T/C [11] was 104% and the viability, T/C [12] was 92.7%. The viability, T/C [13] was 101%, the viability, T/C [14] was 82.6% and the viability, T/C [15] was 93.7%. It also gave a viability, T/C [16] of 93.3%, a viability, T/C [17] of 85.6% and a viability, T/C [18] of 96%. It also gave a viability, T/C [19] of 94.8%, a viability, T/C [20] of 84% and a viability, T/C [21] of 96.3%. The viability, T/C [22] was 87.8%, the viability, T/C [23] was 96.4% and the viability, T/C [24] was 85.3%. It also gave a viability, T/C [25] of 98.9%, a viability, T/C [26] of 83.4% and a viability, T/C [27] of 82.4%. For the same compound, the viability, T/C [28] was 105%, the viability, T/C [29] was 90.1% and the viability, T/C [30] was 104%. It also gave a viability, T/C [31] of 96.2%, a viability, T/C [32] of 89.6% and a viability, T/C [33] of 86.4%. For the same compound, the viability, T/C [34] was 89.3%, the viability, T/C [35] was 84.9% and the viability, T/C [36] was 93.5%.
Work on `CC(C)n1c(=O)n(C)c2cnc3cc(F)c(-c4ccc(OCCCN5CCCCC5)nc4)cc3c21` + COC1C(OC(N)=O)C(O)C(Oc2ccc3c(O)c(NC(=O)c4ccc(O)c(CC=C(C)C)c4)c(=O)oc3c2C)OC1(C)C yielded an IC50 (second compound 0.0316 µM) greater than 10 µM, an IC50 (second compound 0.1 µM) greater than 10 µM and an IC50 (second compound 0.316 µM) greater than 10 µM. It also gave an IC50 (second compound 1 µM) greater than 10 µM, an IC50 (second compound 3.16 µM) greater than 10 µM and an IC50 (second compound 10 µM) greater than 10 µM. For the same compound, the viability, T/C [1] was 92.3%, the viability, T/C [2] was 74% and the viability, T/C [3] was 86.2%. It also gave a viability, T/C [4] of 75.7%, a viability, T/C [5] of 67.5% and a viability, T/C [6] of 56.5%. For the same compound, the viability, T/C [7] was 85.2%, the viability, T/C [8] was 87.4% and the viability, T/C [9] was 87.5%. The viability, T/C [10] was 76.6%, the viability, T/C [11] was 64.3% and the viability, T/C [12] was 68.4%. It also gave a viability, T/C [13] of 99.1%, a viability, T/C [14] of 81.2% and a viability, T/C [15] of 84%. For the same compound, the viability, T/C [16] was 75.3%, the viability, T/C [17] was 67.5% and the viability, T/C [18] was 60.5%. For the same compound, the viability, T/C [19] was 85.5%, the viability, T/C [20] was 81.2% and the viability, T/C [21] was 77.4%. It also gave a viability, T/C [22] of 71.7%, a viability, T/C [23] of 69.8% and a viability, T/C [24] of 75.7%. For the same compound, the viability, T/C [25] was 78%, the viability, T/C [26] was 81.7% and the viability, T/C [27] was 77.7%. It also gave a viability, T/C [28] of 68.1%, a viability, T/C [29] of 77.7% and a viability, T/C [30] of 80.4%. It also gave a viability, T/C [31] of 80.2%, a viability, T/C [32] of 74.6% and a viability, T/C [33] of 79.7%. The viability, T/C [34] was 72.2%, the viability, T/C [35] was 80.7% and the viability, T/C [36] was 64.9%.
